The results in this text go back to US11123316B2, “Imaging composition and uses thereof” (The University of Melbourne, priority 2014, dated 2021).

The test in a line: Competition Study 2: ZrCl4(THF)2 added to mixture of DFOPhSO3H and DFOSqTaur, ESI-MS. In kind it is binding. The following applies: 50° C., 7 hours, FIG. 46. How it is done:
A 3 mM stock solution of each ligand, DFOPhSO3H and DFOSqTaur, was prepared in a mixture of H2O and MeOH (concentrations were confirmed prior to dilution by UV-Vis Fe^3+ titration in H2O, 430 nm). A mixture of both solutions (25 uL each) was mixed thoroughly and heated to 50° C. A stock solution of ZrCl4(THF)2 in H2O/MeOH (3 mM) was also prepared, and 20 uL of this was added to the ligand mixture. The mixture was incubated at 50° C. for 7 hours.

Turning to `CC(=O)N(O)CCCCCNC(=O)CCC(=O)N(O)CCCCCNC(=O)CCC(=O)N(O)CCCCCNc1c(NCCS(=O)(=O)O)c(=O)c1=O` [DFOSqTaur], the “Zr complex found in competition with DFOPhSO3H” value is reported as “presence of the ZrDFOSqTaur complex”.
